Series [1] deals with HT-29. Nature of the series: Anti-necroptic activity in human HT-29 cells assessed as inhibition of TSZ induced necroptosis incubated for 5 min followed by compound washout and further induced with TSZ by celltiter-glo luminescent cell viability assay. The format is functional, cell-based. The settings on record: HT-29, 5 min.
The target in series [2] is T1, Mixed lineage kinase domain-like protein (Homo sapiens) (UniProt Q8NB16).
T1 sequence (whole entry): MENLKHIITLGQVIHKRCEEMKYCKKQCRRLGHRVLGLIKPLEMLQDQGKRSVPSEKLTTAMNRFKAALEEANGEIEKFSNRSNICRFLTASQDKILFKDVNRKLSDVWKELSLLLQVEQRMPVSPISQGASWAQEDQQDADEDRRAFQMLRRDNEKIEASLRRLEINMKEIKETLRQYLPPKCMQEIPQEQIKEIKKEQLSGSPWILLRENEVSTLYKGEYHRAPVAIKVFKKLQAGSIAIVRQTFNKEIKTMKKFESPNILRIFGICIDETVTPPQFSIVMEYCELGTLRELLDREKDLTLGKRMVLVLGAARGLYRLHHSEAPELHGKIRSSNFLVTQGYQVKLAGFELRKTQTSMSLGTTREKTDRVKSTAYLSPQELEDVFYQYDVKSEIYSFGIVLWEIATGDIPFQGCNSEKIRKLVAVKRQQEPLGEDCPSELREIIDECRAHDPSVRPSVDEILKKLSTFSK
Nature of the series: Inhibition of human MLKL in human HT-29 cells assessed as inhibition of TSZ (TNFalpha, Smac mimetic and z-VAD-FMK) induced MLKL oligomerization at 1 uM and measured after 6 hrs by immunoblot assay. The class given is cell-based. For orientation: A western blot detects proteins with antibodies after separation by electrophoresis.

In series [3] the target is T2, Receptor-interacting serine/threonine-protein kinase 1 (Homo sapiens) (UniProt Q13546).
T2 sequence (whole entry): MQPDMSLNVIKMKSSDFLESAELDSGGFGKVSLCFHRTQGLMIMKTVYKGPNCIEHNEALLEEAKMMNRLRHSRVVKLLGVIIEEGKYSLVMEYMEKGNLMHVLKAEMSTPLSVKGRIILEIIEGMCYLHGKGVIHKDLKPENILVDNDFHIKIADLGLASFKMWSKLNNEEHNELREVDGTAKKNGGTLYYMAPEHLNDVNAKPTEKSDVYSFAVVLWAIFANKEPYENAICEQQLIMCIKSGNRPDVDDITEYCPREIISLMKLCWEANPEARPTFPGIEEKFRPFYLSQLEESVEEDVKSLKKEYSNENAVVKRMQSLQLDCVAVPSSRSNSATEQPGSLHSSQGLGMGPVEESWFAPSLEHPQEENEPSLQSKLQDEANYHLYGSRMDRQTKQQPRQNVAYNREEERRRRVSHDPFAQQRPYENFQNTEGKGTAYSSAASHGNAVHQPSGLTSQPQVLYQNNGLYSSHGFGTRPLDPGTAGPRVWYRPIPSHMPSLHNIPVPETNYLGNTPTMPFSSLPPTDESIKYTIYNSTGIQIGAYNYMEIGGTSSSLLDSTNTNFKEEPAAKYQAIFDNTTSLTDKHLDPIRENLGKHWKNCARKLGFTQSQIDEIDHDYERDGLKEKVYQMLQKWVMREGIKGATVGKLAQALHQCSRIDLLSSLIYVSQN
Nature of the series: Inhibition of RIP1 (1 to 375 residues) (unknown origin) assessed as substrate phosphorylation using MBP and ATP as substrate at 10 uM preincubated for 15 mins followed by substrate addition and measured after 90 mins by ADP-Glo luminescence assay; values are per cent of control. The following applies: time 105.0 min. (ADP-Glo first removes unused ATP, then detects ADP through luciferase.)

For series [4], the target named is T1, Mixed lineage kinase domain-like protein (Homo sapiens). Nature of the series: Inhibition of human MLKL in human HT-29 cells assessed as inhibition of TSZ (TNFalpha, Smac mimetic and z-VAD-FMK) induced MLKL translocation to cell membrane at 1 uM and measured after 8 hrs by western blot analysis. The class given is cell-based.
Series [5] relates to HT-29. Nature of the series: Anti-necroptic activity in human HT-29 cells assessed as inhibition of TSZ (TNFalpha, Smac mimetic and z-VAD-FMK) induced necroptosis incubated for 24 hrs by celltiter-glo luminescent cell viability assay. The format is functional, cell-based. The settings on record: HT-29, 24 h. In general terms: ATP-based viability assays read luminescence as a measure of living cells.

Series [6] addresses Receptor-interacting serine/threonine-protein kinase 3 (Homo sapiens) (UniProt Q9Y572). Nature of the series: Inhibition of full length RIP3 (unknown origin) assessed as substrate phosphorylation using MBP and ATP as substrate at 10 uM preincubated for 15 mins followed by substrate addition and measured after 90 mins by ADP-Glo luminescence assay; values are per cent of control. The settings on record: time 105.0 min.

Series [7] can be described thus: GSH reactivity in DPBS buffer assessed as fold decrease in reaction rate by UPLC-MS analysis relative to control. The class given is ADME.
The target in series [8] is T1, Mixed lineage kinase domain-like protein (Homo sapiens). Nature of the series: Displacement of biotin-tagged TCI3136 binding from human recombinant MLKL at Cys86 residues in human HT-29 cell lysate assessed as biotin labeled ligand-protein complex pull down at 5 uM preincubated with compound for 1 hr followed by probe addition for 1 hrs and further incubated with biotinylation of probe by click chemistry reaction for 2 hrs by pull-down assay. The class given is subcellular. The settings on record: time 4.0 hrs.

Series [9] has as its system HT-29. Nature of the series: Anti-necroptic activity in human HT-29 cells assessed as inhibition of TSZ induced necroptosis incubated for 3 hr followed by compound washout and further induced with TSZ by celltiter-glo luminescent cell viability assay. The format is functional, cell-based. The following applies: HT-29, 3 h.
The subject of series [10] is HT-29. Nature of the series: Anti-necroptic activity in human HT-29 cells assessed as inhibition of TSZ induced necroptosis incubated for 3 hrs followed by TSZ stimulation by celltiter-glo luminescent cell viability assay. The following applies: HT-29, 3 h. The format is functional, cell-based.
Series [11] has as its target T1, Mixed lineage kinase domain-like protein (Homo sapiens). Nature of the series: Covalent binding affinity to human recombinant MLKL at Cys86 residue assessed as covalent additive product formation by LC-MS/MS analysis.
Series [12] relates to HT-29. Nature of the series: Anti-necroptic activity in human HT-29 cells assessed as inhibition of TSZ induced necroptosis incubated for 1 hr followed by compound washout and further induced with TSZ by celltiter-glo luminescent cell viability assay. The following applies: HT-29, 1 h. The format is functional, cell-based.
For series [13], the system named is HT-29. Nature of the series: Anti-necroptic activity in human HT-29 KO cells expressing MLKL K157A mutant assessed as inhibition of TSZ (TNFalpha, Smac mimetic and z-VAD-FMK) induced MLKL K157A mutant mediated necroptosis incubated for 24 hrs by celltiter-glo luminescent cell viability assay. The format is functional, cell-based.
Series [14] concerns the target Receptor-interacting serine/threonine-protein kinase 3 (Homo sapiens) (UniProt Q9Y572). Nature of the series: Inhibition of full length RIP3 (unknown origin) assessed as substrate phosphorylation using MBP and ATP as substrate at 1 uM preincubated for 15 mins followed by substrate addition and measured after 90 mins by ADP-Glo luminescence assay; values are per cent of control. The settings on record: time 105.0 min.

Series [15] concerns the target T1, Mixed lineage kinase domain-like protein (Homo sapiens). Nature of the series: Inhibition of human MLKL in human HT-29 cells assessed as inhibition of TSZ (TNFalpha, Smac mimetic and z-VAD-FMK) induced MLKL oligomerization at 5 uM and measured after 6 hrs by immunoblot assay. The class given is cell-based.
Series [16] has as its target T2, Receptor-interacting serine/threonine-protein kinase 1 (Homo sapiens). Nature of the series: Inhibition of RIP1 (1 to 375 residues) (unknown origin) assessed as substrate phosphorylation using MBP and ATP as substrate at 1 uM preincubated for 15 mins followed by substrate addition and measured after 90 mins by ADP-Glo luminescence assay; values are per cent of control. The settings on record: time 105.0 min.

The nature of series [17]: GSH reactivity in DPBS buffer assessed as conjugation half life by UPLC-MS analysis. The class given is ADME. The settings on record: glutathione (GSH) in DPBS buffer.
For series [18], the system named is HT-29. Nature of the series: Anti-necroptic activity in human HT-29 KO cells expressing MLKL F148A mutant assessed as inhibition of TSZ (TNFalpha, Smac mimetic and z-VAD-FMK) induced MLKL F148A mutant mediated necroptosis incubated for 24 hrs by celltiter-glo luminescent cell viability assay. The format is functional, cell-based.
The target of series [19] is T1, Mixed lineage kinase domain-like protein (Homo sapiens). Nature of the series: Inhibition of human MLKL in human HT-29 cells assessed as inhibition of TSZ (TNFalpha, Smac mimetic and z-VAD-FMK) induced MLKL oligomerization at 200 nM and measured after 6 hrs by immunoblot assay. The format is cell-based.
Series [20] has the same target. Nature of the series: Inhibition of FLAG-tagged human MLKL in human HT-29 cells assessed as inhibition of TSZ (TNFalpha, Smac mimetic and z-VAD-FMK) induced MLKL phosphorylation by measuring dispersed phosphorylated MLKL in cytoplasm at 1 uM and measured after 8 hrs by Hoechst 33342 staining based immunofluorescence analysis. The format is cell-based.
The target of series [21] is T2, Receptor-interacting serine/threonine-protein kinase 1 (Homo sapiens). Nature of the series: Inhibition of TSZ (TNFalpha, Smac mimetic and z-VAD-FMK) induced RIPK1 phosphorylation in human HT-29 cells assessed as decrease in phosphorylated RIPK1 level incubated for 8 hrs by western blot analysis. The class given is cell-based.
Series [22] has as its target T1, Mixed lineage kinase domain-like protein (Homo sapiens). Nature of the series: Inhibition of FLAG-tagged human MLKL in human HT-29 cells assessed as inhibition of TSZ (TNFalpha, Smac mimetic and z-VAD-FMK) induced MLKL phosphorylation at 1 uM and measured after 8 hrs by Hoechst 33342 staining based immunofluorescence analysis. The format is cell-based.
A further series relates to MEF. Nature of the series: Anti-necroptic activity in mouse MEF cells assessed as inhibition of TSZ (TNFalpha, Smac mimetic and z-VAD-FMK) induced necroptosis incubated for 24 hrs by celltiter-glo luminescent cell viability assay. The format is functional, cell-based.

Each structure is given as a SMILES string. Activity calls are given as the source filed them. The calls are words filed in the database; no cut-off is given here. Some results are limits rather than exact numbers.

Sequence of Receptor-interacting serine/threonine-protein kinase 3 (Homo sapiens) (Q9Y572 whole entry, looked up): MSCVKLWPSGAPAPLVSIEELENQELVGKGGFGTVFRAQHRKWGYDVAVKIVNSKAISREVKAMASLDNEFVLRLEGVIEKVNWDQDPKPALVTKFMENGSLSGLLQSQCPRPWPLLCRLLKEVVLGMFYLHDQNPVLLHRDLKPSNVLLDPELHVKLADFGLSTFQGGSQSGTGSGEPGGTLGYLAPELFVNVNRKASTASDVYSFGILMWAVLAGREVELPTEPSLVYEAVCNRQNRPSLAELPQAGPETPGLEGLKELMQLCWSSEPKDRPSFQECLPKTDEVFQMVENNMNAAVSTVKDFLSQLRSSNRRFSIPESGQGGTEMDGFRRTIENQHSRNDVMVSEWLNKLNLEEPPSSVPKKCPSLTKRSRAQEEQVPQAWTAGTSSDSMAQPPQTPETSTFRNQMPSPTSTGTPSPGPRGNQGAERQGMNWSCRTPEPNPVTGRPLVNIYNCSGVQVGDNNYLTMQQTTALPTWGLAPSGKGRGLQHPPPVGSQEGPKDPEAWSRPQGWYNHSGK

The EC50 is the concentration giving half of the maximal effect. As usually defined, the residual activity is the signal under treatment as a percentage of the control signal. With `Cc1ccc(CCC(=O)Nc2c(Cl)n(CC#Cc3ccc(O)c(Cn4ccccc4=O)c3)c(=O)n(C)c2=O)cc1`, the concentration for a half-maximal effect (EC50) is over 10000 nM in the series with HT-29 [1]; 82 nM in the series with HT-29 [5]; 180 nM in the series on HT-29 [9]; 188 nM in the series with HT-29 [10]; 584 nM in the series on HT-29 [12]. Moreover, the inhibition entry (in series [2]; in series [4]; in the series on HT-29 [13]) was “Active” in each case. In addition, the results for the residual activity in series [3], in series [6] and in [14] were 82.6%, 99.8% and 100%, respectively. Also, in [7], the “fold change (FC)” value came out at 150. For the same molecule, the outcome in [8] and in series [11] was Active.
For the molecule `COc1nccnc1NSc1ccc(NC(=O)/C=C/c2ccc([N+](=O)[O-])s2)cc1`, the inhibition entry (in [15]; in the series with HT-29 [13]) was “Active” each time.
Turning to `COc1ccc(C#CCn2c(Cl)c(NC(=O)CCc3ccc(C)cc3)c(=O)n(C)c2=O)cc1Cn1cccc(OC)c1=O`, the residual activity in series [3] is 101%; in [6], 99.3%; in [16], 111%; in [14], 96.3%. Further, the 50% effective concentration (EC50) with HT-29 [5] turned out to be 85 nM.
The half-life is how long it takes for the measured level to halve. Take `Cn1c(=O)c2c(nc(S(C)(=O)=O)n2C)n(CC#Cc2cccc(O)c2)c1=O`: the half-life in [17] stood at 20 min. In addition, the half-maximal effective concentration (EC50) with HT-29 [5] is 2 nM. For the same molecule, the inhibition result (in the series with HT-29 [18]; in [19]; with HT-29 [13]) was “Active” in each case.
`COc1cccn(Cc2cc(C#CCn3c(Cl)c(NC(=O)CCc4ccc(C)cc4)c(=O)n(C)c3=O)ccc2O)c1=O`: the inhibition result (in series [2]; in [20]; in series [4]; in the series with HT-29 [13]) was “Active” in each case. The residual activity in series [3] is 101%; in series [6] it was 110%; in series [16], 117%; in series [14], 110%. Further, the EC50 in the series with HT-29 [5] worked out at 31 nM. In addition, in series [7], the “fold change (FC)” value stood at 150. In series [8], the outcome was Active.
As for `C=CC(=O)Nc1c(Cl)n(CC#Cc2cccc(O)c2)c(=O)n(C)c1=O`, the residual activity in series [3] was 86.2%; in series [6] it was 108%; in [16], 84.2%; in [14], 102%. Further, the EC50 in the series on HT-29 [5] was found to be 950 nM.
In the same order, the values of `Cc1ccc(C(=O)Nc2ccc(CN3CCN(C)CC3)c(C(F)(F)F)c2)cc1C#Cc1cnc2cccnn12` [PONATINIB] are 0.4%, 0.31%, 3.8%, 0.97% and 440 nM.
With `CCC(C)(C)C(=O)N(O)Cc1ccccc1`, the inhibition result (in series [21]; in series [22]; with MEF) was “Active” throughout.
Consider `Cc1ccc(CCC(=O)Nc2c(Cl)n(CC#Cc3ccc(O)cc3)c(=O)n(C)c2=O)cc1`, for which the residual activity in series [3] turned out to be 96.1%; in [6], 102%; in series [16] it was 92.1%; in [14] it was 90.5%. Besides, the 50% effective concentration (EC50) with HT-29 [5] is 222 nM.
